Test results taken from US8518957B2, “Methanocarba adenosine derivatives, pharmaceutical compositions, and method of reducing intraocular pressure” (The United States of America, as represented by the …, priority 2009, dated 2013).

Key:
[1] = target: T1, human A3AR (Homo sapiens, UniProt P0DMS8); assay: Radioligand binding at human A3 AR ([125I]I-AB-MECA, membranes of CHO cells); settings: for Ki: [125I]38, CHO cells, read-out: Affinity (Ki, nM), A3
T1 construct: expressed in transfected cells
T1 sequence (P0DMS8 1-318): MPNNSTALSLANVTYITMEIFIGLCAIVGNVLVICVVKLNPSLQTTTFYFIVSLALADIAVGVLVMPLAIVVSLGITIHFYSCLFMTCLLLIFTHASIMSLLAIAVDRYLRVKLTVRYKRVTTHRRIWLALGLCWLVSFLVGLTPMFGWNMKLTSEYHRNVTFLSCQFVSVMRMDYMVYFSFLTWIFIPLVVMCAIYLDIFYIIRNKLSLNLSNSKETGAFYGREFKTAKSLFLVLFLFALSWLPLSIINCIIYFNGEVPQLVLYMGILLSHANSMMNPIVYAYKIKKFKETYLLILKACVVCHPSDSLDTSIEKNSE
Summary of the method: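 Membranes came from CHO cells stably expressing hA3R, pretreated with adenosine deaminase (3 units/mL). Competition with agonist radioligand was run in 50 mM Tris-HCl pH 7.5, 10 mM MgCl2 for 60 min at 25 °C, followed by GF/B filtration and γ-counting. Ki values derived.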

[2] = target: T1, human A3AR; assay: Cyclic AMP accumulation assay: inhibition of forskolin-stimulated cyclic AMP production in AR-transfected CHO cells; type: cell-based; settings: for % Inhibition of cAMP formation at hA3 AR: at 10 μM, in comparison to the maximal effect of full agonist NECA at 10 μM
Experimental: Intracellular cyclic AMP levels were measured with a competitive protein binding method. […] CHO cells that expressed the recombinant human A3AR were harvested by trypsinization. After centrifugation and resuspended in medium, cells were planted in 24-well plates in 1.0 mL medium. After 24 h, the medium was removed and cells were washed three times with 1 mL DMEM, containing 50 mM HEPES, pH 7.4. […] After 45 min forskolin (10 μM) was added to the medium, and incubation was continued for an additional 15 min. […] The cell lysate was resuspended and stored at −20° C. For determination of cyclic AMP production, protein kinase A (PKA) was incubated with [^3H]cyclic AMP (2 nM) in K2HPO4/EDTA buffer (K2HPO4, 150 mM; EDTA, 10 mM), 20 μL of the cell lysate, and 30 μL 0.1 M HCl or 50 μL of cyclic AMP solution (0-16 pmol/200 μL for standard curve). Bound radioactivity was separated by rapid filtration through Whatman GF/C filters and washed once with cold buffer. Bound radioactivity was measured by liquid scintillation spectrometry.
Bound radioactivity was separated by rapid filtration through Whatman GF/C filters and washed the filters once with cold buffer. Bound radioactivity was measured with liquid scintillation spectrometry.

| Compound | Ki [1] | % Inhibition of cAMP formation at hA3 AR [2] | % Inhibition of cAMP accumulation at the hA3AR ([2]; concentration 10 μM, in comparison to full agonist NECA at 1 μM) | selectivity for the hA3AR in comparison to the hA1 and hA2A ARs ([1]; radioligand binding inhibition curves, figure legends) |
| --- | --- | --- | --- | --- |
| C#CCCCCC#Cc1nc(NCc2cccc(Cl)c2)c2ncn(C3C(O)C(O)C4(C(=O)NC)CC34)c2n1 (stereo not drawn) [Compound 9, (1′S, 2′R, 3′S, 4′S, 5′S)-4′-[6-(3-Chlorobenzylamino)-2-(1,7-octadiynyl)-9H-purin-9-yl]-2′,3′-dihydroxybicyclo[3.1.0]hexane-1′-carboxylic acid N-methylamide] | 29.4 ± 9.8 nM | 60.2 ± 17.0% | 60.2 ± 17.0% |  |
| CNC(=O)[C@@]12C[C@@H]1[C@@H](n1cnc3c(NCc4cccc(Cl)c4)nc(C#CCCCCc4cn(-c5ccc(F)c([N+](=O)[O-])c5)nn4)nc31)[C@H](O)[C@@H]2O [Compound 11] | 10.6 ± 3.8 nM | 116 ± 22% |  |  |
| CNC(=O)[C@@]12C[C@@H]1[C@@H](n1cnc3c(NCc4cccc(Cl)c4)nc(C#CCCCCc4cn(-c5ccc(N)cc5)nn4)nc31)[C@H](O)[C@@H]2O [Compound 12, (1S,2R,3S,4R,5S)-4′-(6-(3-Chlorobenzylamino)-2-(6-(1-(4-amino-phenyl)-1H-1,2,3-triazol-4-yl)hex-1-ynyl)-9H-purin-9-yl)-2′,3′-dihydroxybicyclo[3.1.0]hexane-1′-carboxylic acid N-methylamide] | 87.1 ± 13.1 nM | 44.3 ± 2.4% |  |  |
| CNC(=O)[C@@]12C[C@@H]1[C@@H](n1cnc3c(NCc4cccc(Cl)c4)nc(C#CCCCCc4cn(-c5ccc(C(=O)O)cc5)nn4)nc31)[C@H](O)[C@@H]2O [Compound 13, (1S,2R,3S,4R,5S)-4′-(6-(3-Chlorobenzylamino)-2-(6-(1-(4-carboxyl-phenyl)-1H-1,2,3-triazol-4-yl)hex-1-ynyl)-9H-purin-9-yl)-2′,3′-dihydroxybicyclo[3.1.0]hexane-1′-carboxylic acid N-methylamide] | 180 ± 23 nM | 83.4 ± 13.1% |  |  |
| CNC(=O)[C@@]12C[C@@H]1[C@@H](n1cnc3c(NCc4cccc(Cl)c4)nc(C#CCCCCc4cn(-c5ccc(C(=O)CBr)cc5)nn4)nc31)[C@H](O)[C@@H]2O [Compound 14, (1S,2R,3S,4R,5S)-6-(3-Chlorobenzylamino)-4-(2-(6-(4-(2-bromoacetyl)phenyl)-1H-1,2,3-triazol-4-yphex-1-ynyl)-9H-purin-9-yl)-2′,3′-dihydroxybicyclo[3.1.0]hexane-1′-carboxylic acid N-methylamide] | 9.6 ± 1.3 nM | 109 ± 12% |  |  |
| CNC(=O)[C@@]12C[C@@H]1[C@@H](n1cnc3c(NCc4cccc(Cl)c4)nc(C#CCCCCc4cn(CCNC(C)=O)nn4)nc31)[C@H](O)[C@@H]2O [Compound 15, (1S,2R,3S,4R,5S)-6-(3-Chlorobenzylamino)-(2-(6-(1-(4-acetamidoethyl)-1H-1,2,3-triazol-4-yl)hex-1-ynyl)-9H-purin-9-yl)-2′,3′-dihydroxybicyclo[3.1.0]hexane-1′-carboxylic acid N-methylamide] | 22.3 ± 1.6 nM | 93.6 ± 17.7% |  |  |
| CNC(=O)[C@@]12C[C@@H]1[C@@H](n1cnc3c(NCc4cccc(Cl)c4)nc(C#CCCCCc4cn(CCCCN)nn4)nc31)[C@H](O)[C@@H]2O [Compound 16, (1S,2R,3S,4R,5S)-6-(3-Chlorobenzylamino)-(2-(6-(1-(4-aminobutyl)-1H-1,2,3-triazol-4-yl)hex-1-ynyl)-9H-purin-9-yl)-2′,3′-dihydroxybicyclo[3.1.0]hexane-1′-carboxylic acid N-methylamide] | 47 ± 1.8 nM | 64.4 ± 12.4% |  |  |
| CNC(=O)[C@@]12C[C@@H]1[C@@H](n1cnc3c(NCc4cccc(Cl)c4)nc(C#CCCCCc4cn(CCCCNC(C)=O)nn4)nc31)[C@H](O)[C@@H]2O [Compound 17, (1S,2R,3S,4R,5S)-6-(3-Chlorobenzylamino)-(2-(6-(1-(4-acetamidobutyl)-1H-1,2,3-triazol-4-yl)hex-1-ynyl)-9H-purin-9-yl)-2′,3′-dihydroxybicyclo[3.1.0]hexane-1′-carboxylic acid N-methylamide] | 89.5 ± 12.6 nM | 59.7 ± 19.2% |  |  |
| CNC(=O)[C@@]12C[C@@H]1[C@@H](n1cnc3c(NCc4cccc(Cl)c4)nc(C#CCCCCc4cn(C56CC7CC(CC(C7)C5)C6)nn4)nc31)[C@H](O)[C@@H]2O [Compound 18, (1S,2R,3S,4R,5S)-6-(3-Chlorobenzylamino)-(2-(6-(1-(adamantyl)-1H-1,2,3-triazol-4-yl)hex-1-ynyl)-9H-purin-9-yl)-2′,3′-dihydroxybicyclo[3.1.0]hexane-1′-carboxylic acid N-methylamide] | 6.5 ± 0.5 nM | 27.8 ± 17.4% |  | highly selective |
| CNC(=O)[C@@]12C[C@@H]1[C@@H](n1cnc3c(NCc4cccc(Cl)c4)nc(C#CCCCCc4cn(Cc5ccc(-n6sccc6=O)cc5)nn4)nc31)[C@H](O)[C@@H]2O [Compound 19, (1S,2R,3S,4R,5S)-6-(3-Chlorobenzylamino)-(2-(1-(4-3-oxoisothiazol-2(3H)-yl)benzyl-1H-1,2,3-triazol-4-yphex-1-ynyl)-9H-purin-9-yl)-2′,3′-dihydroxybicyclo[3.1.0]hexane-β-carboxylic acid N-methylamide] | 102 ± 25 nM | 75.9 ± 16.5% |  |  |
| CNC(=O)[C@@]12C[C@@H]1[C@@H](n1cnc3c(NCc4cccc(Cl)c4)nc(C#CCCCCc4cn(CCCCCCNC(=O)CCCC[C@@H]5SC[C@@H]6NC(=O)N[C@@H]65)nn4)nc31)[C@H](O)[C@@H]2O [Compound 20, (1S,2R,3S,4R,5S)-6-(3-Chlorobenzylamino)-(2-(6-(1-(6-(5-(3aS,4S,6aR)-oxohexahydro-1H-thieno[3,4-d]imidazol-4-yl)pentanamido)hexyl-1H-1,2,3-triazol-4-yl)hex-1-ynyl)-9H-purin-9-yl)-2′,3′-dihydroxybicyclo[3.1.0]hexane-1′-carboxylic acid N-methylamide] | 285 ± 54 nM | 55.6 ± 12.5% |  |  |
| CNC(=O)[C@@]12C[C@@H]1[C@@H](n1cnc3c(NCc4cccc(Cl)c4)nc(C#CCCCCc4cn(CCCCCCC(=O)NCCCCCCNC(=O)CCCC[C@@H]5SC[C@@H]6NC(=O)N[C@@H]65)nn4)nc31)[C@H](O)[C@@H]2O [Compound 21] | 235 ± 43 nM | 41.8 ± 11.3% |  |  |
| CNC(=O)[C@@]12C[C@@H]1[C@@H](n1cnc3c(NCc4cccc(Cl)c4)nc(C#CCCCCc4cn(CCCCCCNC(=O)c5ccc(-c6c7ccc(=N)c(S(=O)(=O)O)c-7oc7c(S(=O)(=O)O)c(N)ccc67)c(C(=O)O)c5)nn4)nc31)[C@H](O)[C@@H]2O [Compound 23] | 416 ± 45 nM | 37.8 ± 14.6% |  |  |
| CNC(=O)[C@@]12C[C@@H]1[C@@H](n1cnc3c(NCc4cccc(Cl)c4)nc(-c4nnn(-c5ccc(N=C=S)cc5)c4CCCCc4cn(-c5ccc(N=C=S)cc5)nn4)nc31)[C@H](O)[C@@H]2O [Compound 25, (1S,2R,3S,4R,5S)-6-(3-Chlorobenzylamino)-(2-(1,6-bis(4-isothiocyante-phenyl)-1H-bis(1,2,3-triazol-4-yl)hex-1-ynyl)-9H-purin-9-yl)-2′,3′-dihydroxybicyclo[3.1.0]hexane-1′-carboxylic acid N-methylamide] | 8.8 ± 1.3 nM | 83.6 ± 7.2% |  |  |
| CNC(=O)[C@@]12C[C@@H]1[C@@H](n1cnc3c(NCc4cccc(Cl)c4)nc(C#CCCCCc4cn(-c5ccc(N=C=S)cc5)nn4)nc31)[C@H](O)[C@@H]2O [Compound 26, (1S,2R,3S,4R,5S)-6-(3-Chlorobenzylamino)-(2-(6-(1-(4-isothiocyante-phenyl)-1H-1,2,3-triazol-4-yl)hex-1-ynyl)-9H-purin-9-yl)-2′,3′-dihydroxybicyclo[3.1.0]hexane-1′-carboxylic acid N-methylamide] | 37.5 ± 16 nM | 19.5 ± 14.5% |  |  |
